Measured values: article PMC8425881, “De Novo Design of Peptidic Positive Allosteric Modulators Targeting TRPV1 with Analgesic Effects” (Advanced Science, 2021)
pEC50: −log10 of the molar value.

Target: T1, Murine TRPV1 (Mus musculus, UniProt Q704Y3)
T1 construct: full-length channel, eYFP fused to C terminus (pEYFP-N3), expressed in HEK293T; cDNA gift of Michael X. Zhu; homotetramer
Assay: whole-cell patch clamp, Hill fit
Format: cell-based

T1 sequence (Q704Y3 whole entry, the tested form may be a part): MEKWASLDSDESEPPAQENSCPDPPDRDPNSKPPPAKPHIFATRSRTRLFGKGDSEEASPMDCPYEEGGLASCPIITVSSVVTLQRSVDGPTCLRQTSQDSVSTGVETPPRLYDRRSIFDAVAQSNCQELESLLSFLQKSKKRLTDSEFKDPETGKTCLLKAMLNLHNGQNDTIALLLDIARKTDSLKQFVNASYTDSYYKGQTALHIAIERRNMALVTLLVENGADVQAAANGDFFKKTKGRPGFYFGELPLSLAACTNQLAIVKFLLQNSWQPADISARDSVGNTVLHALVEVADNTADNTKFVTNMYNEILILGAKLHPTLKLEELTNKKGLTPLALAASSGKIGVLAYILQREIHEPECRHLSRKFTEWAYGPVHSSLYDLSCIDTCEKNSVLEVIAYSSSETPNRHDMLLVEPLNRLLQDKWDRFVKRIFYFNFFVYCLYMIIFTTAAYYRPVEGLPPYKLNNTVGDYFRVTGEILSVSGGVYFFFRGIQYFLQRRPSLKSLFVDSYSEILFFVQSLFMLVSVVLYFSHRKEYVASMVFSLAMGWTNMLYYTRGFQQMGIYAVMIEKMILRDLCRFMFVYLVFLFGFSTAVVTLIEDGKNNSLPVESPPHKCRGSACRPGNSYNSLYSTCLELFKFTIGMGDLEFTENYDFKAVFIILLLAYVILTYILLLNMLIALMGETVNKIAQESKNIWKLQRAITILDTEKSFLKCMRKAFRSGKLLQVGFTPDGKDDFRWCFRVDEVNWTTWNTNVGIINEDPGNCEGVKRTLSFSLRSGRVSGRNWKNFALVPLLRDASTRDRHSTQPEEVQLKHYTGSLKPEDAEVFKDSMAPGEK

With `COc1cc(CNC(=O)CCCC/C=C/C(C)C)ccc1O` [capsaicin] the pEC50 was 6.73.
